Measured values from US20130209551A1, “PENTAPEPTIDE DERIVATIVES FOR PROMOTING HAIR GROWTH” (priority 2010, published 2013).
*: point of attachment. Biotin = O=C1N[C@H]2[C@H](CS[C@H]2CCCCC(=O)*)N1

Test system: hair bulb keratinocytes
Experiment: Detection of the hair bulb keratinocyte proliferation (test of Biol. Pharm. Bull., 28(3), 485-489, (2005))
Assay type: cell-based
Conditions: relative to unsubstituted pentapeptide Gly-Pro-Ile-Gly-Ser
From the text: In the test as described in Biol. Pharm.

**Q.** “5-[(3aS,4S,6aR)-2-oxo-hexahydro-1H-thieno[3,4-d]imidazol-4-yl]pentanoyl-Gly-Pro-Ile-Gly-Ser-OH (Biotin-GPIGS-OH; SMILES CC[C@H](C)[C@H](NC(=O)[C@@H]1CCCN1C(=O)CNC(=O)CCCC[C@@H]1SC[C@@H]2NC(=O)N[C@@H]21)C(=O)NCC(=O)N[C@@H](CO)C(=O)O) [No. 9]” was tested. Which “keratinocyte growth test result, value superior in comparison with the corresponding value for Gly-Pro-Ile-Gly-Ser” value did it give?
**A.** 53%
